Experimental data taken from patent US11607422B2, “Uttroside B and derivatives thereof as therapeutics for hepatocellular carcinoma” (Rajiv Gandhi Centre for Biotechnology, an Autonomous …, priority 2016, dated 2023).
pIC50: −log10 of the molar value.

How the values were obtained:
HL60 = experiment: MTT cell viability assay in HL60 cells; format: cell-based; details: 72 h
Description: FIG. 2A is a graph comparison of IC50 of Uttroside B in a panel of cancer cells of different origin. The cancer cell lines HeLa, A375, HepG2, MDA-MB-231, HL 60, A549 and HCT116 were treated with Uttroside B as indicated, incubated for 72 h and the cell viability was assessed by MTT assay. FIG. 2B is a graph showing dose dependent effect of Uttroside B in the liver cancer cell lines and in normal immortalized hepatocytes. The liver cancer cell lines HepG2, Hep3B, SKHEP-1, Huh-7 and normal hepatocytes (Chang liver), were treated with Uttroside B incubated for 72 h and the cell viability was assessed by MTT assay. FIG. 2C is a graph comparison of IC50 of Uttroside B with sorafenib. HepG2 cells were treated with Uttroside B as indicated, incubated for 72 h, and the cell viability was assessed by MTT assay. […] The clones developed were counted and plotted as a graph. Colony containing more than four cells was counted as one clone. […]
MTT [3-(4,5-dimethylthiazole-2-yl)-2,5-diphenyltetrazolium bromide] assay is a standard colorimetric assay, suitable for analyzing proliferation, viability, and cytotoxicity. […] After overnight incubation, cells were treated with different concentrations of organic extracts (25-250 μg/ml) of S. nigrum and the isolated compound Uttroside B (250-1250 nM) for 72 h and cytotoxicity was measured. […]

HepG2 cells [1] = experiment: Cell cycle analysis by flow cytometry (propidium iodide); format: cell-based, human; details: HepG2, 48 h, all concentrations studied
Description: FIGS. 3A-3F show Uttroside B induces caspase-dependent apoptosis leading to PARP cleavage in HepG2 cells while being independent of cell cycle. FIGS. 3A-3E are images of Western blots showing caspase activation in HepG2 cells. Whole-cell extracts were prepared after treating HepG2 cells with indicated concentrations of Uttroside B for 48 h, the whole cell lysate was resolved on a 15% gel and subjected to western blotting using antibodies against the caspases 8, 9 & 7 detected by ECL. HepG2 cells were treated with Uttroside B for 48 h at different concentrations and the whole cell lysate was resolved on a 10% gel, immunoblotted against anti-PARP and detected by ECL. […] HepG2 cells were treated with Uttroside B for 48 h, stained with propidium iodide and the cell cycle analysis was done using fluorescence activated cell sorter. Curcumin 25 μM (24 h) is used as positive control.
Flow cytometry: Cell cycle analysis helps in distinguishing the distribution of a population of cells to the different stages of the cycle. Cell cycle analysis using flow cytometry was performed to investigate the cell cycle arrest induced by Uttroside B. Cell cycle analysis is performed by quantitative measurement of nuclear DNA content in a cell by staining DNA with propidium iodide. […]

HepG2 cells [2] = experiment: Acridine orange staining for acidic vesicular organelles; format: cell-based, human; details: HepG2, cytotoxic concentration, 24 h
Description: The presence of acidic vesicles, which are characteristics of autophagosome can be analyzed using this method. Acridine orange stains the nucleus green and the acidic vesicular organellae (AVOs) as red.^32 To detect the presence of AVOs in HepG2 cells, 5×10^3 were seeded in 96 well plates, and treated with Uttroside B and incubated for 24 h. The cells were rinsed with 1× PBS twice. The treated cells were then stained with acridine orange, which was added at a final concentration of 1 μg/mL and incubated for 15 min and immediately photographed using a fluorescent microscope.
FIG. 18 is a representative image showing that Uttroside B induces acidic vacuole formation in HepG2 cells by Acridine orange staining. To further confirm the autophagic induction by Uttroside B in HepG2 cells, the cells were exposed to cytotoxic concentration of Uttroside B for a period of 24 h and stained with Acridine orange dye. AO orange stains nucleus green and acidic vesicular organelle, mainly autophagosome, bright red. It crosses into acidic compartments and becomes protonated. The protonated dye stacks and stacked acridine orange emits in the red range.

## C[C@H](CC[C@@]1(O)O[C@H]2C[C@H]3[C@@H]4CC[C@H]5C[C@@H](O[C@@H]6O[C@H](CO)[C@H](O[C@@H]7O[C@H](CO)[C@@H](O)[C@H](O[C@@H]8OC[C@@H](O)[C@H](O)[C@H]8O)[C@H]7O[C@@H]7O[C@H](CO)[C@@H](O)[C@H](O)[C@H]7O)[C@H](O)[C@H]6O)CC[C@]5(C)[C@H]4CC[C@]3(C)[C@H]2[C@@H]1C)CO[C@@H]1O[C@H](CO)[C@@H](O)[C@H](O)[C@H]1O [Uttroside B]
HL60
  pIC50: 5.60
HepG2 cells [1]
  effect on cell cycle: did not show any significant effect on cell cycle
HepG2 cells [2]
  acidic vacuole formation (Acridine orange): AO positivity, a preliminary indication of increased autophagosomes was clearly visible
